Test results as given in ChEMBL document CHEMBL5465560, “Selectivity Literature for EUbOPEN Chemogenomic Library” (2024).

Tests used:
[1] = molecular target: T1, Dual specificity mitogen-activated protein kinase kinase 7 (Homo sapiens) (UniProt O14733); test: Selectivity interaction (Ambit KINOMEscan and KiNATiv profiling in Jurkat cells) EUB0000090b MAP2K7; type: cell-based; conditions: at 1 µM
T1 sequence (whole entry): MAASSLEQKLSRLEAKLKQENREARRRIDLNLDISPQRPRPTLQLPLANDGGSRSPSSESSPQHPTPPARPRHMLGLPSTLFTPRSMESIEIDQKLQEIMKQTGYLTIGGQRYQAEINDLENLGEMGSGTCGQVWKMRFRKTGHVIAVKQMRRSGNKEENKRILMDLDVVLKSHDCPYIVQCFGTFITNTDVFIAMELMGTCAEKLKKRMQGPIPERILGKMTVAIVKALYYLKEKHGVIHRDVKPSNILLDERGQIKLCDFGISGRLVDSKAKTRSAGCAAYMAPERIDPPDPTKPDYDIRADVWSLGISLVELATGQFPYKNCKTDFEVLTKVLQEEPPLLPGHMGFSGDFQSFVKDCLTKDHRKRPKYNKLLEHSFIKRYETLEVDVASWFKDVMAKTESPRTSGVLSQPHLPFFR

[2] = molecular target: T2, Tyrosine-protein kinase ITK/TSK (Homo sapiens) (UniProt Q08881); test: Selectivity interaction (Ambit KINOMEscan and KiNATiv profiling in Jurkat cells) EUB0000090b ITK; type: cell-based; conditions: at 1 µM
T2 sequence (whole entry): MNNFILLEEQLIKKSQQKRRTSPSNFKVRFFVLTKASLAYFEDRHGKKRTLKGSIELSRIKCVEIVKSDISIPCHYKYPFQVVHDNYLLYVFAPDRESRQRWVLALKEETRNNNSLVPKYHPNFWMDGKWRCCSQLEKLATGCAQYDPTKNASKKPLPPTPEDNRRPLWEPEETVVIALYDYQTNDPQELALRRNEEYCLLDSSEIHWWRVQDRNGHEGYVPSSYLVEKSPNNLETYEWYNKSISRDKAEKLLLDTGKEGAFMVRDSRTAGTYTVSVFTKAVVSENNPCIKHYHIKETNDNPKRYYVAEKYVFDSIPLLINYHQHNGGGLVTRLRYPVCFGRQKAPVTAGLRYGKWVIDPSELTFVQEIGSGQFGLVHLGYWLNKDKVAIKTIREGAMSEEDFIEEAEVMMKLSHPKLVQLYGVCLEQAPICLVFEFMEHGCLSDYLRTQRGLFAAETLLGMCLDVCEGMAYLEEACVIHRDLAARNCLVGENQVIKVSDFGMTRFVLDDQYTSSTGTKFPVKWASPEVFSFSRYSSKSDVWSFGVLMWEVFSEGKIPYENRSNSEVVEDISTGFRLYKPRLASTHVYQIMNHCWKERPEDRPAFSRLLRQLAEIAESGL

[3] = molecular target: CDK7/Cyclin H/MNAT1 (Homo sapiens) (UniProt P51946+P50613+P51948); test: Selectivity interaction (Adapta Assay) EUB0001632a CDK7; type: protein-complex assay; conditions: at 10 µM
[4] = molecular target: T3, Phosphatidylinositol 4,5-bisphosphate 3-kinase catalytic subunit delta isoform (Homo sapiens) (UniProt O00329); test: Selectivity interaction (Adapta Assay) EUB0001632a PIK3CD; conditions: at 10 µM
T3 sequence (whole entry): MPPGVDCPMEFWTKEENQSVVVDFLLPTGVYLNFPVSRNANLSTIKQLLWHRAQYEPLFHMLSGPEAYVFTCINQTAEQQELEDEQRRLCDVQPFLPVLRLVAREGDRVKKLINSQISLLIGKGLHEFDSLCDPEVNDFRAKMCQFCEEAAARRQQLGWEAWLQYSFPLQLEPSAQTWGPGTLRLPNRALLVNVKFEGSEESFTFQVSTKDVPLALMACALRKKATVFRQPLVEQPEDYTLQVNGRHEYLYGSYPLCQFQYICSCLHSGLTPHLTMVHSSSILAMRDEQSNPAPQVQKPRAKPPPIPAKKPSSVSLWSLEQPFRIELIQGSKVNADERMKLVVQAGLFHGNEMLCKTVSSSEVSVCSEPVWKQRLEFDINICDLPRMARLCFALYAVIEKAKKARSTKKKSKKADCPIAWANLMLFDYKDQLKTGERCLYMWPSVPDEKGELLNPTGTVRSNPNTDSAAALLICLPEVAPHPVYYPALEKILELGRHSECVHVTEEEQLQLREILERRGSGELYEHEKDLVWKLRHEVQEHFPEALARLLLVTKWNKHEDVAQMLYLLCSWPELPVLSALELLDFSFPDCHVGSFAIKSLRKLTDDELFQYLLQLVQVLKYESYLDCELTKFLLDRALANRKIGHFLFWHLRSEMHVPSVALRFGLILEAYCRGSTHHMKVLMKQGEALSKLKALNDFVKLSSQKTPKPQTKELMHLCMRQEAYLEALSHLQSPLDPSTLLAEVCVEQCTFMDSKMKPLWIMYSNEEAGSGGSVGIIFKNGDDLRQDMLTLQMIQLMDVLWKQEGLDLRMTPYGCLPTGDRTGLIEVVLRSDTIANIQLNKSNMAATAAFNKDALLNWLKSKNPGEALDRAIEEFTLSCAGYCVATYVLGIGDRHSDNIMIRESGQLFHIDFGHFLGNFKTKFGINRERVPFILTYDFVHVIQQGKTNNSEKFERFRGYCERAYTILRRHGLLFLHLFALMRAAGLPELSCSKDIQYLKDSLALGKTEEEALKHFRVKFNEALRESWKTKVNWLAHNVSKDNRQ

[5] = molecular target: Insulin receptor-related protein (Homo sapiens) (UniProt P14616); test: Selectivity interaction (KinomeScan (DiscoverX)) EUB0000695a INSRR; conditions: at 100 nM
[6] = molecular target: Phosphatidylinositol 4-phosphate 5-kinase type-1 gamma (Homo sapiens) (UniProt O60331); test: Selectivity interaction (KinomeScan (DiscoverX)) EUB0000695a PIP5K1C; conditions: at 100 nM
[7] = molecular target: Fibroblast growth factor receptor 3 (Homo sapiens, UniProt P22607); test: Selectivity interaction (Upstate Kinase Profiler service (Millipore)) EUB0000056c FGFR3; conditions: at 1 µM
[8] = molecular target: BMP-2-inducible protein kinase (Homo sapiens) (UniProt Q9NSY1); test: Selectivity interaction (Kinase panel (DSF assay)) EUB0001559a BMP2K
[9] = molecular target: Cyclin-dependent kinase-like 3 (Homo sapiens) (UniProt Q8IVW4); test: Selectivity interaction (KinomeScan (DiscoverX)) EUB0000666a CDKL3; conditions: at 10 µM
Chain of Cyclin-dependent kinase-like 3 (Homo sapiens) (Q8IVW4 whole entry, looked up): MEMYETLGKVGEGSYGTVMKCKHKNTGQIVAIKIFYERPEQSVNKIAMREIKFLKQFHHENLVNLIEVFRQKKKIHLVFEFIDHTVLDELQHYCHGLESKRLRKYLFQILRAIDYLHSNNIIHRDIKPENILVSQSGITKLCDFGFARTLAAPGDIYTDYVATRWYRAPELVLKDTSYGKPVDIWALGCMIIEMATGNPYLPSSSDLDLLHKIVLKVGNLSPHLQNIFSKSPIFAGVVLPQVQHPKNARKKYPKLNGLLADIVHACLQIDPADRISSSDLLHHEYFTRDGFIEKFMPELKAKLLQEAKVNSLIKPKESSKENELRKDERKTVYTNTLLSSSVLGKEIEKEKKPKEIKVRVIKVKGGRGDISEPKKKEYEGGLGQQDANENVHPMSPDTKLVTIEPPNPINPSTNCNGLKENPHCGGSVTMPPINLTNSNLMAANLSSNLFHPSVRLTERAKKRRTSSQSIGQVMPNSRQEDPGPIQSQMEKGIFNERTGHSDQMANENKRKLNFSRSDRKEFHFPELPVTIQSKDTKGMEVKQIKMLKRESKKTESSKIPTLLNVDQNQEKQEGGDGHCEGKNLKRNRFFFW

Chain of BMP-2-inducible protein kinase (Homo sapiens) (Q9NSY1 whole entry, looked up): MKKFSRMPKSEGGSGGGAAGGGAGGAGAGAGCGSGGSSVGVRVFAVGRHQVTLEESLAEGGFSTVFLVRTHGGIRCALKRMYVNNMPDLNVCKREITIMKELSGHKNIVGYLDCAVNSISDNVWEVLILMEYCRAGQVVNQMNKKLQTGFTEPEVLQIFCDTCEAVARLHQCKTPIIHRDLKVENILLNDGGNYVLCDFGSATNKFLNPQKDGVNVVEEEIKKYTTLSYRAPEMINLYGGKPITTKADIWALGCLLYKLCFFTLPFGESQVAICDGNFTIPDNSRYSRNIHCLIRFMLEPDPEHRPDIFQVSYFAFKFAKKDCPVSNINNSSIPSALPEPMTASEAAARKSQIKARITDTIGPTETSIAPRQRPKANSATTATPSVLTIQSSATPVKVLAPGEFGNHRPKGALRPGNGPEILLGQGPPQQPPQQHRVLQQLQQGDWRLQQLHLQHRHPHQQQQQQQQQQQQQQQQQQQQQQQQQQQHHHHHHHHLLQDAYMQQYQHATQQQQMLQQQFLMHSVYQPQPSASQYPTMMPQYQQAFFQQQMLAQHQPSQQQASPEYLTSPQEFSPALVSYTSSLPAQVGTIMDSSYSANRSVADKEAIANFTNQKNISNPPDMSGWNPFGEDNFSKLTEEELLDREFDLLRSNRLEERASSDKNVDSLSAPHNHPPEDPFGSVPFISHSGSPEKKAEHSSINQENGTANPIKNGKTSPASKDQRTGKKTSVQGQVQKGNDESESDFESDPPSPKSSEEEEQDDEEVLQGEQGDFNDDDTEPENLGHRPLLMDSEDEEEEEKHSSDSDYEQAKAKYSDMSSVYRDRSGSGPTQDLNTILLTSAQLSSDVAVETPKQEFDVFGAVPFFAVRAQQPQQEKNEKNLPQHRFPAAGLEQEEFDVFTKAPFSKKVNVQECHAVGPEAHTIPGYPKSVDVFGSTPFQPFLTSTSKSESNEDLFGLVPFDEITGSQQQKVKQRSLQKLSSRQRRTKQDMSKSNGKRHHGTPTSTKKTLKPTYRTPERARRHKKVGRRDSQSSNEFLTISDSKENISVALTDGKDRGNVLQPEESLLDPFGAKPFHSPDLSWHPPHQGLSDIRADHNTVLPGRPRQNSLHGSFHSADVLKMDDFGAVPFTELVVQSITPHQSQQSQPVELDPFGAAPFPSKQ
Chain of Phosphatidylinositol 4-phosphate 5-kinase type-1 gamma (Homo sapiens) (O60331 whole entry): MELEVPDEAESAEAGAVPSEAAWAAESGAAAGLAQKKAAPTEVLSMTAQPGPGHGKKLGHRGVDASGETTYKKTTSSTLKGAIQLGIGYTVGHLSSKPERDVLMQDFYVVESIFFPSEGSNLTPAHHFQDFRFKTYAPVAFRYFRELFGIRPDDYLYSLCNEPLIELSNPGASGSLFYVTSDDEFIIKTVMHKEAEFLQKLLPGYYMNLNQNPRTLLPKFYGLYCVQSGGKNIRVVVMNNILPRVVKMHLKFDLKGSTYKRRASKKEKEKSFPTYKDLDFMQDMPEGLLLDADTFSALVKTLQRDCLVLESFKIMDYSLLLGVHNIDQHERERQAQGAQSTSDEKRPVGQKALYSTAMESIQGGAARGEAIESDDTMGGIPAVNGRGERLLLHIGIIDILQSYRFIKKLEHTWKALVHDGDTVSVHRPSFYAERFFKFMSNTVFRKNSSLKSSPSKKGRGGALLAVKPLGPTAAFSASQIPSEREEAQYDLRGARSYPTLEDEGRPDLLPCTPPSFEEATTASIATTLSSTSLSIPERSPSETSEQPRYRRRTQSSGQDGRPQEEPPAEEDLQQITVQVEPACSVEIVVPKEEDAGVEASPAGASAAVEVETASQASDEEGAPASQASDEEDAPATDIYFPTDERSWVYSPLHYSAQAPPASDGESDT
Chain of Fibroblast growth factor receptor 3 (P22607 23-806 limits assumed): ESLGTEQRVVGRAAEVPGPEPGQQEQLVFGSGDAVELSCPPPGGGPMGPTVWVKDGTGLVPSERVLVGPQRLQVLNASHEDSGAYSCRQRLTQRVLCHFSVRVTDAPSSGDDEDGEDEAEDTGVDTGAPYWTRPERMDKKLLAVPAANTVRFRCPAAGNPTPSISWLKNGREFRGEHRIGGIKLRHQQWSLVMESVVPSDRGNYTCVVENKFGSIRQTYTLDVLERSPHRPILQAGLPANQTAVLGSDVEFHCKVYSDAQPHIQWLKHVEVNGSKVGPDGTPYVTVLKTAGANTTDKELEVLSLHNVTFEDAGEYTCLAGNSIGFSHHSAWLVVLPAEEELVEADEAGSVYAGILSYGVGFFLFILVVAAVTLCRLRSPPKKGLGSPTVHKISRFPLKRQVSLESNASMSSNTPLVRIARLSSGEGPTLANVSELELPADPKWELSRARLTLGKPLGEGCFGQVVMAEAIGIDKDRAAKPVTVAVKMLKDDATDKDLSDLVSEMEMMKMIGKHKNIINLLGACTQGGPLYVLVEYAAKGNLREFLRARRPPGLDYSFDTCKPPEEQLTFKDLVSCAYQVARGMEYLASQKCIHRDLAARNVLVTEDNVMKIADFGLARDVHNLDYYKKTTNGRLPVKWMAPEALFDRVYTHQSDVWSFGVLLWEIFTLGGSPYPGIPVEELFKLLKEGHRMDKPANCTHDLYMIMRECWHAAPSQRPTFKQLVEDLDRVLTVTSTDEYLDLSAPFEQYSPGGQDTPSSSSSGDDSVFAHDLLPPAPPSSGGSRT
Chain of Insulin receptor-related protein (Homo sapiens) (P14616 27-742 limits assumed): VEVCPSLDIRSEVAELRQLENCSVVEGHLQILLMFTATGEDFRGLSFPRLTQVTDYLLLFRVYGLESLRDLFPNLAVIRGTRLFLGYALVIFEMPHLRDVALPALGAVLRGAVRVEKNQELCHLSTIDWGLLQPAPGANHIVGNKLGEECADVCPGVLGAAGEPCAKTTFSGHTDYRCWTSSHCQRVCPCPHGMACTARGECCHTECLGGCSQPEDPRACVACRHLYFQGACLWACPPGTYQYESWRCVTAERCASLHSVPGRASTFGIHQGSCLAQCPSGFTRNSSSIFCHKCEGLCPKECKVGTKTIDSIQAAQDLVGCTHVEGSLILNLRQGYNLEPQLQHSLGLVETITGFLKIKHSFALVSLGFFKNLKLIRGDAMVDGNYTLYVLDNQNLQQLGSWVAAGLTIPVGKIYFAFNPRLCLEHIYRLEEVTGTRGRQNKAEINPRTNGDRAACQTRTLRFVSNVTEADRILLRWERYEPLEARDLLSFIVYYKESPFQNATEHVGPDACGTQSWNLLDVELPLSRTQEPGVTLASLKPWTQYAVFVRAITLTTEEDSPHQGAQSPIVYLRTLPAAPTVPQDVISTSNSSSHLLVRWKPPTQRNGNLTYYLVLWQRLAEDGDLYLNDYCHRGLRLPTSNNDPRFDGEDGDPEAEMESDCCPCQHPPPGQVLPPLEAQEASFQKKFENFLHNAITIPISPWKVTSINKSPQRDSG
Chain of Insulin receptor-related protein (Homo sapiens) (P14616 747-1297 limits assumed): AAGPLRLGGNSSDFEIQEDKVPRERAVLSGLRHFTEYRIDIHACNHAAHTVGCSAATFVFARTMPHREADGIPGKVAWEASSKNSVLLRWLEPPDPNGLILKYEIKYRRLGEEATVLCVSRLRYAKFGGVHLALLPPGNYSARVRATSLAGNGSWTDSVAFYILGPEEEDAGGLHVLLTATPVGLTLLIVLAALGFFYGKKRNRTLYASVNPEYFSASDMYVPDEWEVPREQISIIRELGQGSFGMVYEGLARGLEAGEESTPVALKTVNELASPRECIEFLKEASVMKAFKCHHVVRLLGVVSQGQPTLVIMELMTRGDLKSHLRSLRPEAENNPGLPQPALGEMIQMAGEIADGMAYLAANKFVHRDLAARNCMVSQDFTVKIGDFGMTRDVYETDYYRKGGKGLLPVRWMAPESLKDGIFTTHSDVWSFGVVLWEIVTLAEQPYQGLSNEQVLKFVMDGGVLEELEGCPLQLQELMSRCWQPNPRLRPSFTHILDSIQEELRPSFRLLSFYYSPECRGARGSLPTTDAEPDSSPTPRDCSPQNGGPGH

CN(C)C/C=C/C(=O)Nc1ccc(C(=O)N2CCCC(Nc3ncc(Cl)c(-c4c[nH]c5ccccc45)n3)C2)cc1 (centres undefined)
% of control [1]: 100%
% of control [2]: 91%

Cn1cc(-n2cnc3c(NCc4nc5cc(Cl)c(Cl)cc5[nH]4)nc(N4CCOCC4)nc32)cn1
% of inhibition [3]: -13.5%
% of inhibition [4]: 66.6%

Cc1cc(F)c(C(=O)Nc2cccc(-c3nncn3C(C)C)n2)cc1-n1cnc(C2CC2)c1
% of control [5]: 88%
% of control [6]: 100%

Cc1ccc(-c2ccc3c(ccc4sc5c(c43)NC[C@@H](C)NC5=O)n2)cn1
% of inhibition [7]: 16%

CN(C(=O)c1cnn2cccnc12)c1cc2c(cc1N1CCOCC1)C(=O)N(C[C@@H](F)C(C)(C)O)C2
dTM [8]: -0.2 K

O=C(NOC[C@H](O)CO)c1ccc(F)c(F)c1Nc1ccc(I)cc1F
% of control [9]: 98%
